Measurements from US8063225B2, “Tricyclic compound derivatives useful in the treatment of neoplastic diseases, inflammatory disorders and immunomodulatory disorders” (Chembridge Corporation, priority 2006, dated 2011).

Experiments:
Format in all cases: cell-based
MM1s = experiment: Cell proliferation inhibition, MTT assay, MM1s; settings: Homo sapiens, MM1.S, 72 h, MM1S multiple myeloma cells, 3-day proliferation
Description: (§1) IGF1R and other tyrosine kinase inhibitors can inhibit the proliferation of certain cancer cell lines indicating their possible therapeutic utility for treating the corresponding cancer types. Cancer cell lines of interest and control normal lines, including CHO, HEK293, BA/F3, COLO205, PC3, DU145, MCF7, Panc1, ACHN, Hep G2, H460, K562, TT, U87-MG, CAOV-3, SK-MEL5, Karpas 299 and human multiple myeloma cell lines H929, MM1s, MM1r, UTMC2, CPM2, KMS11, My5, KMS12PE, My7, JJN3, KMS18, U266, SKMM2, RPMI-8226 are plated in white, clear-bottomed 384-well cell culture plates at 2500-5000 cells per well and supplied with dilutions of tested compounds After a desired period of time (typically 3 days), the number of viable cells is quantitated by using Cell Titer-Glo Luminescent Cell Viability Assay (Promega), a cell proliferation assay system based on detection of total amount of ATP present as a measure of cell metabolic activity. The plated cells are mixed with the Cell Titer-Glo developing reagent and counted in a luminescence multiwell plate reader according to the standard manufacturer's protocol to generate IC50 curves for cell proliferation inhibition. Results are typically reported as percent of growth (% viability =(OD72h(compound)−ODday0))/(OD72h(no compound)−ODday0). Alternatively, viable cells are quantitated by using the conventional colorimetric MTT assay. The MTT assay is based on the cleavage of the yellow tetrazolium salt MTT to purple formazan crystal by metabolic active cells. The formazan is then solubilized, and the concentration determined by optical density at 570 nm. The cells plated and incubated with a compound as described above are supplemented with the solution of MTT and incubated for 2-3 hours. The growth medium is removed and dimethyl sulfoxide is added into each well to dissolve the formazan. The absorbance is measured on an ELISA plate reader with a test wavelength of 570 nm and a background subtraction wavelength of 630 nm to obtain sample signal (OD570-OD630). […] The results are reported in terms of IC50 value for a particular compound and a cell line in the standard 3-day proliferation assay using Cell Titer-Glo. […] The results are reported in terms of IC50 value for a particular compound and a cell line in the standard 3-day proliferation assay using MTT assay.

[1] = test system: CHO (chinese hamster ovary); experiment: Cell proliferation inhibition, MTT assay, CHO; settings: Cricetulus griseus, 72 h, CHO cells, 3-day proliferation
Description: as §1

[2] = test system: HEK293 (human normal embryonic kidney); experiment: Cell proliferation inhibition, MTT assay, HEK293; settings: 72 h, HEK293 cells, 3-day proliferation, read-out: HEK IC50
Description: as §1

CPM2 = experiment: Cell proliferation inhibition, MTT assay, CPM2; settings: Homo sapiens, Multiple myeloma cell, 72 h, CPM2 multiple myeloma cells, 3-day proliferation
Description: as §1

H929 = experiment: Cell proliferation inhibition, MTT assay, H929; settings: Homo sapiens, NCI-H929, 72 h, H929 multiple myeloma cells, 3-day proliferation
Description: as §1

MM1r = experiment: Cell proliferation inhibition, MTT assay, MM1r; settings: Homo sapiens, MM.1R, 72 h, MM1R multiple myeloma cells, 3-day proliferation
Description: as §1

KMS11 = experiment: Cell proliferation inhibition, MTT assay, KMS11; settings: Homo sapiens, KMS-11, 72 h, KMS11 multiple myeloma cells, 3-day proliferation
Description: as §1

UTMC2 = experiment: Cell proliferation inhibition, MTT assay, UTMC2; settings: Homo sapiens, 72 h, UTMC2 multiple myeloma cells, 3-day proliferation
Description: as §1

Structure (SMILES) | IC50 (MM1s) | IC50 [1] | IC50 [2] | IC50 (CPM2) | IC50 (H929) | IC50 (MM1r) | IC50 (KMS11) | IC50 (UTMC2)
COc1ccc(OCC(=O)CNc2cc[nH]c(=O)c2-c2nc3cc4c(cc3[nH]2)C(=O)N(C2CCN(C)CC2)C4)c(Cl)c1 [drawing 843] | 500 to 1000 nM | ≥ 20000 nM | ≥ 20000 nM | 1000 to 5000 nM | 500 to 1000 nM | 1000 to 5000 nM | 1000 to 5000 nM | < 500 nM
Cc1ccc(OCC(=O)CNc2cc[nH]c(=O)c2-c2nc3cc4c(cc3[nH]2)CN(CCCN2CCCC2)C4=O)c(C)c1 [drawing 840] | 1000 to 5000 nM | ≥ 20000 nM | ≥ 20000 nM | 5000 to 20000 nM | 500 to 1000 nM | 1000 to 5000 nM | 5000 to 20000 nM | 500 to 1000 nM
CN1CCC(N2Cc3cc4[nH]c(-c5c(NCC(=O)COc6ccccc6Br)cc[nH]c5=O)nc4cc3C2=O)CC1 [drawing 841] | < 500 nM | ≥ 20000 nM | ≥ 20000 nM | 1000 to 5000 nM | < 500 nM | 500 to 1000 nM | 1000 to 5000 nM | < 500 nM
CCc1cc2c(cc1OCC(=O)CNc1cc[nH]c(=O)c1-c1nc3cc4c(cc3[nH]1)C(=O)N(C1CCN(C)CC1)C4)OCO2 [drawing 842] | < 500 nM | ≥ 20000 nM | ≥ 20000 nM | 1000 to 5000 nM | 500 to 1000 nM | 1000 to 5000 nM | 1000 to 5000 nM | < 500 nM
